The results in this text go back to ChEMBL document CHEMBL4024737, “Iodine catalyzed three component synthesis of 1-((2-hydroxy naphthalen-1-yl)(phenyl)(methyl))pyrrolidin-2-one derivatives: Rationale as potent PI3K inhibitors and anticancer agents” (Bioorg Med Chem Lett, 2017).

Activity calls are given as the source filed them. No cut-off for these calls is given here. A value given as a limit tells only on which side of the number the result lay.

Assay [1] deals with HCT-116. The experiment in a line: Growth inhibition of human HCT116 cells by MTT assay. The format is functional, cell-based. The conditions noted are these: for IC50: Homo sapiens, HCT-116. In general terms: Formazan colour is commonly taken as a measure of viable cells.
In assay [2] the target is T1, Phosphatidylinositol 4,5-bisphosphate 3-kinase catalytic subunit alpha isoform (Homo sapiens, UniProt P42336). The assay is described as follows: Inhibition of PI3K p110alpha (unknown origin) using PIP2 as substrate preincubated for 10 mins followed by substrate addition measured after 1 hr.
Assay [3] concerns the target T1, Phosphatidylinositol 4,5-bisphosphate 3-kinase catalytic subunit alpha isoform. The experiment in a line: Inhibition of PI3K p110alpha (unknown origin) assessed as residual activity using PIP2 as substrate preincubated for 10 mins followed by substrate addition measured after 1 hr relative to control. Details: concentration or dose not given beside the values.
The test system of assay [4] is MCF7. The experiment in a line: Growth inhibition of human MCF7 cells by MTT assay. The format is functional, cell-based. The conditions noted are these: for IC50: Homo sapiens, MCF7.

T1 sequence (P42336 whole entry, canonical isoform): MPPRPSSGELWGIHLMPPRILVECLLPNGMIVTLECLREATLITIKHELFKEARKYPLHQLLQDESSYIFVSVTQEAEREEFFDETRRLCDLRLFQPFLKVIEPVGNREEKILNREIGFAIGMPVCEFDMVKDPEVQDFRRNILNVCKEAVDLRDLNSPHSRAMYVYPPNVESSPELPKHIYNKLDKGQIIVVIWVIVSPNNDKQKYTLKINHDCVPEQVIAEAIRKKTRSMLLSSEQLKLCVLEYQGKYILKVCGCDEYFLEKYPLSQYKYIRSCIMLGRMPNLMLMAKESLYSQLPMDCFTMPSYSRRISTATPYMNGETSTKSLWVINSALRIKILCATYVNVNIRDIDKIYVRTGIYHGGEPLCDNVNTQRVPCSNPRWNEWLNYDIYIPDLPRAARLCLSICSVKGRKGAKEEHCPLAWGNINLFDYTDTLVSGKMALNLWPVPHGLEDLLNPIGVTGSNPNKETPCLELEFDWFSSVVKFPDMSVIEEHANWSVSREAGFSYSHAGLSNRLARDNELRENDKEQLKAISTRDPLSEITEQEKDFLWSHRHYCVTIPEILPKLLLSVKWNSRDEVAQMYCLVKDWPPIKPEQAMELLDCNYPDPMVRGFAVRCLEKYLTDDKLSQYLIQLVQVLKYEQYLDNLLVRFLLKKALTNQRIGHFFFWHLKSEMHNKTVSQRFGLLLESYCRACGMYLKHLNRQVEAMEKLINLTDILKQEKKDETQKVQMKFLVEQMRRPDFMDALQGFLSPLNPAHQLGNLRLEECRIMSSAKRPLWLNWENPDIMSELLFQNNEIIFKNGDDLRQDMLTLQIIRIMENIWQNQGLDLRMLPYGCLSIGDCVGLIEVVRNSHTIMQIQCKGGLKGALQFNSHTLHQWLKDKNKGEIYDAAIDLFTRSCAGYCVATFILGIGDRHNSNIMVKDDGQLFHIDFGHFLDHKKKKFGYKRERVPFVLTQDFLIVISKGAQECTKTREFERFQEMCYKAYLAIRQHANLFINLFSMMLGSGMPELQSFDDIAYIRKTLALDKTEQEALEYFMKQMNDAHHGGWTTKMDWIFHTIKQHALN

With `COc1ccc(C(c2c(O)ccc3ccccc23)N2CCCC2=O)cc1` (centres undefined), the “growth inhibition (GI)” value is 56.44% in assay [1] and 38.98% in assay [4]. The IC50 in assay [1] is 12 µM; in assay [2], at least 10 µM; in assay [4] it was 12 µM. Besides, the Activity in assay [3] amounted to 38%.
With `COc1ccccc1C(c1c(O)ccc2ccccc12)N1CCCC1=O` (centres undefined), the “growth inhibition (GI)” value in assay [1] is “inactive”. In assay [2], the IC50 was at least 25 µM. For the same molecule, the Activity in assay [3] worked out at 22%. For the same molecule, in assay [4], the “growth inhibition (GI)” value is 21.81% and the IC50 came to 92.1 µM.
Consider `O=C1CCCN1C(c1ccc(Cl)cc1Cl)c1c(O)ccc2ccccc12` (centres undefined), for which the “growth inhibition (GI)” value in assay [1] came to 28.26%; in assay [4], 61.71%. The figures for the IC50 in assay [1], in assay [2] and in assay [4] were 14.2 µM, below 1 µM and 4.23 µM, respectively. Further, the Activity in assay [3] worked out at 62%.
As to `COc1cccc(C(c2c(O)ccc3ccccc23)N2CCCC2=O)c1` (centres undefined), the results for the “growth inhibition (GI)” value in assay [1] and in assay [4] were 24.55% and 39.71%, respectively. For the same molecule, the concentration for half-maximal inhibition (IC50) in assay [1] is 15.2 µM; in assay [2], at least 15 µM; in assay [4] it was 15.2 µM. In assay [3], the Activity is 46%.
As for `O=C1CCCN1C(c1ccc(Cl)cc1)c1c(O)ccc2ccccc12` (centres undefined), in assay [1], the “growth inhibition (GI)” value was “inactive”. The results for the 50% inhibitory concentration (IC50) in assay [2] and in assay [4] were below 25 µM and 92.2 µM, respectively. Also, in assay [3], the Activity was 42%. Moreover, the “growth inhibition (GI)” value in assay [4] is recorded as 23.14%.
For `O=C1CCCN1C(c1ccc(O)cc1O)c1c(O)ccc2ccccc12` (centres undefined) the same measures were “inactive”, at least 25 µM, 84.7 µM, 22% and 35.02%.
In the same order, the values of `O=C1CCCN1C(c1cccs1)c1c(O)ccc2ccccc12` (centres undefined) are “inactive”, at least 25 µM, 81.1 µM, 24% and 30.01%.
Regarding `COc1cccc2c1C(=O)c1c(O)c3c(c(O)c1C2=O)C[C@@](O)(C(=O)CO)C[C@@H]3O[C@H]1C[C@H](N)[C@H](O)[C@H](C)O1` [DOXORUBICIN], the “growth inhibition (GI)” value in assay [1] was “inactive”. Moreover, in assay [4], the “growth inhibition (GI)” value is 77.98%.
`COC[C@H]1OC(=O)c2coc3c2[C@@]1(C)C1=C(C3=O)[C@@H]2CCC(=O)[C@@]2(C)C[C@H]1OC(C)=O`: the Activity in assay [3] worked out at 76%.
For the molecule `O=C1CCCN1C(c1ccccc1Br)c1c(O)ccc2ccccc12` (centres undefined), the “growth inhibition (GI)” value in assay [1] was found to be 48.12%; in assay [4], 76.06%. Also, the values for the IC50 in assay [1], in assay [2] and in assay [4] were 12.9 µM, at least 0.05 µM and 1.03 µM, respectively. The Activity in assay [3] stood at 79%.
As to `O=C1CCCN1C(c1ccccc1F)c1c(O)ccc2ccccc12` (centres undefined), the figures for the “growth inhibition (GI)” value in assay [1] and in assay [4] were 37.38% and 60.38%, respectively. For the same molecule, the concentration for half-maximal inhibition (IC50) in assay [1] is 14.8 µM; in assay [2], at least 5 µM; in assay [4] it was 4.81 µM. In addition, the Activity in assay [3] turned out to be 56%.
Take `Cc1ccc(C(c2c(O)ccc3ccccc23)N2CCCC2=O)cc1` (centres undefined): the “growth inhibition (GI)” value in assay [1] was determined as 26.28%; in assay [4], 56.46%. For the same molecule, the IC50 in assay [1] was 24.8 µM; in assay [2], below 5 µM; in assay [4], 4.81 µM. Besides, the Activity in assay [3] came out at 52%.
With `O=C1CCCN1C(c1ccc(O)cc1)c1c(O)ccc2ccccc12` (centres undefined), the “growth inhibition (GI)” value was 28.14% in assay [1] and 30.98% in assay [4]. Moreover, the 50% inhibitory concentration (IC50) in assay [1] was 31 µM; in assay [2], at least 25 µM; in assay [4], 31 µM. In addition, the Activity in assay [3] is 28%.
As for `O=C1CCCN1C(c1ccccc1Cl)c1c(O)ccc2ccccc12` (centres undefined), the “growth inhibition (GI)” value came to 40.12% in assay [1] and 55.01% in assay [4]. The IC50 was 26.6 µM in assay [1], at least 5 µM in assay [2] and 6.58 µM in assay [4]. Moreover, the Activity in assay [3] was determined as 55%.
For `O=C1CCCN1C(c1ccccc1)c1c(O)ccc2ccccc12` (centres undefined), the “growth inhibition (GI)” value in assay [1] was “inactive”. Further, in assay [2], the IC50 is at least 25 µM. Moreover, the Activity in assay [3] amounted to 32%. Besides, in assay [4], the “growth inhibition (GI)” value stood at 25.46% and the IC50 was found to be 82.2 µM.
Take `O=C1CCCN1C(c1cccc2ccccc12)c1c(O)ccc2ccccc12` (centres undefined): the “growth inhibition (GI)” value in assay [1] was found to be 36.14%; in assay [4], 60.46%. Besides, the IC50 in assay [1] was 24.8 µM; in assay [2], below 5 µM; in assay [4] it was 4.47 µM. Further, in assay [3], the Activity was 59%.
Turning to `O=C1CCCN1C(c1ccc(F)cc1)c1c(O)ccc2ccccc12` (centres undefined), the figures for the “growth inhibition (GI)” value in assay [1] and in assay [4] were 60.92% and 80.23%, respectively. Besides, the IC50 in assay [1] is 6.98 µM; in assay [2], at least 0.05 µM; in assay [4], 0.981 µM. Moreover, the Activity in assay [3] was found to be 83%.
For the molecule `N#Cc1ccc(C(c2c(O)ccc3ccccc23)N2CCCC2=O)cc1` (centres undefined), the “growth inhibition (GI)” value in assay [1] is “inactive”. For the same molecule, the IC50 in assay [2] was at least 25 µM; in assay [4] it was 80.3 µM. Further, the Activity in assay [3] stood at 28%. Moreover, in assay [4], the “growth inhibition (GI)” value came to 33.41%.
As for `O=C1CCCN1C(c1ccc(Br)cc1)c1c(O)ccc2ccccc12` (centres undefined), the figures for the “growth inhibition (GI)” value in assay [1] and in assay [4] were 20.22% and 41.22%, respectively. The IC50 in assay [1] was 17.6 µM; in assay [2], at least 15 µM; in assay [4], 16.6 µM. In addition, the Activity in assay [3] turned out to be 44%.

In general, IC50 refers to the point on the concentration scale where inhibition reaches its midpoint.
